# Activity calls are given as the source filed them. No cut-off for these calls is given here.
# Experiments:
# HT-29 [1] = assay: Antiproliferative activity against human HT-29 cells harbouring wild-type KRAS and RON delta 160 assessed as cell growth inhibition measured after 72 hrs by MTS assay; type: functional
# KM12C [2] = assay: Antiproliferative activity against human KM12-C cells harbouring wild-type KRAS and RON delta 160 assessed as cell growth inhibition measured after 72 hrs by MTS assay; type: functional
# SW-620 [3] = assay: Antiproliferative activity against human SW620 cells harbouring KRAS G12 V mutant and RON delta 155 assessed as cell growth inhibition measured after 72 hrs by MTS assay; type: functional
# LS-411N = assay: Antiproliferative activity against human LS-411N cells harbouring wild-type KRAS and RON delta 155 assessed as cell growth inhibition measured after 72 hrs by MTS assay; type: functional
# [4] = Antiproliferative activity against human SNU-1047 cells harbouring wild-type KRAS and RON delta 155 assessed as cell growth inhibition measured after 72 hrs by MTS assay; type: functional
# SW1417 = assay: Antiproliferative activity against human SW1417 cells harbouring wild-type KRAS and RON delta 155 assessed as cell growth inhibition measured after 72 hrs by MTS assay; type: functional
# PANC-1 = assay: Antiproliferative activity against human PANC-1 cells harbouring KRAS G12D mutant and RON delta 155 assessed as cell growth inhibition measured after 72 hrs by MTS assay; type: functional
# CAPAN-1 = assay: Antiproliferative activity against human CAPAN-1 cells harbouring KRAS G12V mutant and RON delta 155 assessed as cell growth inhibition measured after 72 hrs by MTS assay; type: functional
# PANC-03-27 = assay: Antiproliferative activity against human Panc 03.27 cells harbouring KRAS G12V mutant and RON delta 155 assessed as cell growth inhibition measured after 72 hrs by MTS assay; type: functional
# SW480 = assay: Antiproliferative activity against human SW480 cells harbouring KRAS G12V mutant and RON delta 155 assessed as cell growth inhibition measured after 72 hrs by MTS assay; type: functional
# [5] = Antiproliferative activity against human SW480E cells harbouring KRAS G12V mutant and RON delta 160 assessed as cell growth inhibition measured after 72 hrs by MTS assay; type: functional
# HCT-15 = assay: Antiproliferative activity against human HCT-15 cells harbouring KRAS G13D mutant and RON delta 160 assessed as cell growth inhibition measured after 72 hrs by MTS assay; type: functional
# MIA PaCa-2 = assay: Antiproliferative activity against human MIA PaCa-2 cells harbouring KRAS G12C mutant and RON delta 160 assessed as cell growth inhibition measured after 72 hrs by MTS assay; type: functional
# ASPC1 = assay: Antiproliferative activity against human ASPC1 cells harbouring KRAS G12D mutant and RON delta 165 assessed as cell growth inhibition measured after 72 hrs by MTS assay; type: functional
# SW-620 [6] = assay: Antitumor activity against human SW620 cells harbouring RON delta 155 xenografted in BALB/c mouse assessed as tumor growth inhibition at 30 mg/kg, po qd measured after 28 days; type: functional; settings: SW-620, 672 h, time 28 day, read-out: TGI
# T84 = assay: Antitumor activity against human T84 cells harbouring RON delta 165 xenografted in BALB/c mouse assessed as tumor growth inhibition at 30 mg/kg, po qd measured after 34 days; type: functional; settings: T84, 816 h, time 34 day, read-out: TGI
# [7] = Antitumor activity against patient derived Colorectal cancer cell harbouring wild-type KRAS and RON delta 160 xenografted in BALB/c mouse assessed as tumor growth inhibition at 10 mg/kg, po qd measured after 28 days; type: functional; settings: Homo sapiens, 672 h, time 28 day, read-out: TGI
# [8] = target: T1, Macrophage-stimulating protein receptor (Homo sapiens, UniProt Q04912); assay: Inhibition of RON (unknown origin)
# [9] = target: Hepatocyte growth factor receptor (Homo sapiens, UniProt P08581); assay: Inhibition of c-Met (unknown origin)
# [10] = target: T1, Macrophage-stimulating protein receptor; assay: Inhibition of N-terminal GST-tagged human recombinant RON (979 to 1400(end) residues) expressed in Sf21 cells incubated for 20 mins followed by ATP addition measured after 60 mins by TR-FRET based LanthaScreen kinase assay
# [11] = Tmax in Sprague-Dawley rat at 5 mg/kg, po measured after 24 hrs by LC/MS/MS analysis; type: ADME, organism-based; settings: in vivo
# [12] = Cmax in Sprague-Dawley rat at 5 mg/kg, po measured after 24 hrs by LC/MS/MS analysis; type: ADME, organism-based; design: dose 5 mg/kg, time 24 hrs, route po; settings: in vivo
# [13] = AUC(0 to infinity) in Sprague-Dawley rat at 1 mg/kg, iv measured after 24 hrs by LC/MS/MS analysis; type: ADME, organism-based; design: time 24 hrs, dose 1 mg/kg, route iv; settings: in vivo
# [14] = AUC(0 to infinity) in Sprague-Dawley rat at 5 mg/kg, po measured after 24 hrs by LC/MS/MS analysis; type: ADME, organism-based; design: dose 5 mg/kg, time 24 hrs, route po; settings: in vivo
# [15] = Clearance in Sprague-Dawley rat at 1 mg/kg, iv measured after 24 hrs by LC/MS/MS analysis; type: ADME, organism-based; settings: in vivo
# [16] = Volume of distribution at steady state in Sprague-Dawley rat at 1 mg/kg, iv measured after 24 hrs by LC/MS/MS analysis; type: ADME, organism-based; settings: in vivo, read-out: Vdss
# [17] = Half life in Sprague-Dawley rat at 1 mg/kg, iv measured after 24 hrs by LC/MS/MS analysis; type: ADME, organism-based; settings: in vivo
# [18] = Half life in Sprague-Dawley rat at 5 mg/kg, po measured after 24 hrs by LC/MS/MS analysis; type: ADME, organism-based; settings: in vivo
# [19] = Oral bioavailability in Sprague-Dawley rat at 5 mg/kg measured after 24 hrs by LC/MS/MS analysis; type: ADME, organism-based; settings: in vivo
# [20] = Metabolic stability in human liver microsomes assessed as parent compound remaining after 30 mins in presence of NADPH by LC/MS/MS analysis; type: ADME, Microsome; settings: read-out: Stability
# KM12C [21] = assay: Antiproliferative activity against human KM12-C cells harbouring wild-type KRAS and RON delta 160 assessed as cell death rate at 5 uM measured after 48 hrs by trypan blue exclusion assay relative to control; type: functional
# HT-29 [22] = assay: Antiproliferative activity against human HT-29 cells harbouring wild-type KRAS and RON delta 160 assessed as cell death rate at 5 uM measured after 48 hrs by trypan blue exclusion assay relative to control; type: functional
# NIH3T3 [23] = assay: Inhibition of RON splicing variant 155 (unknown origin) transfected in […] cells assessed as reduction in RON phosphorylation at 100 uM incubated for 2 hrs by Western blotting analysis; type: cell-based
# NIH3T3 [24] = assay: Inhibition of RON splicing variant 160 (unknown origin) transfected in […] cells assessed as reduction in RON phosphorylation at 100 uM incubated for 2 hrs by Western blotting analysis; type: cell-based
# NIH3T3 [25] = assay: Inhibition of RON splicing variant 165 (unknown origin) transfected in […] cells assessed as reduction in RON phosphorylation at 100 uM incubated for 2 hrs by Western blotting analysis; type: cell-based
# KM12C [26] = assay: Antitumor activity against human KM12-C cells harbouring RON delta 160 xenografted in BALB/c mouse assessed as tumor growth inhibition at 1 mg/kg, po qd measured after 14 days; type: functional; settings: 336 h, time 14 day, read-out: TGI
# KM12C [27] = assay: Antitumor activity against human KM12-C cells harbouring RON delta 160 xenografted in BALB/c mouse assessed as tumor growth inhibition at 3 mg/kg, po qd measured after 14 days; type: functional; settings: 336 h, time 14 day, read-out: TGI
# KM12C [28] = assay: Antitumor activity against human KM12-C cells harbouring RON delta 160 xenografted in BALB/c mouse assessed as tumor growth inhibition at 10 mg/kg, po qd measured after 14 days; type: functional; settings: 336 h, time 14 day, read-out: TGI
# KM12C [29] = assay: Antitumor activity against human KM12-C cells harbouring RON delta 160 xenografted in BALB/c mouse assessed as tumor growth inhibition at 30 mg/kg, po qd measured after 14 days; type: functional; settings: 336 h, time 14 day, read-out: TGI
# Sequence of Hepatocyte growth factor receptor (P08581 whole entry): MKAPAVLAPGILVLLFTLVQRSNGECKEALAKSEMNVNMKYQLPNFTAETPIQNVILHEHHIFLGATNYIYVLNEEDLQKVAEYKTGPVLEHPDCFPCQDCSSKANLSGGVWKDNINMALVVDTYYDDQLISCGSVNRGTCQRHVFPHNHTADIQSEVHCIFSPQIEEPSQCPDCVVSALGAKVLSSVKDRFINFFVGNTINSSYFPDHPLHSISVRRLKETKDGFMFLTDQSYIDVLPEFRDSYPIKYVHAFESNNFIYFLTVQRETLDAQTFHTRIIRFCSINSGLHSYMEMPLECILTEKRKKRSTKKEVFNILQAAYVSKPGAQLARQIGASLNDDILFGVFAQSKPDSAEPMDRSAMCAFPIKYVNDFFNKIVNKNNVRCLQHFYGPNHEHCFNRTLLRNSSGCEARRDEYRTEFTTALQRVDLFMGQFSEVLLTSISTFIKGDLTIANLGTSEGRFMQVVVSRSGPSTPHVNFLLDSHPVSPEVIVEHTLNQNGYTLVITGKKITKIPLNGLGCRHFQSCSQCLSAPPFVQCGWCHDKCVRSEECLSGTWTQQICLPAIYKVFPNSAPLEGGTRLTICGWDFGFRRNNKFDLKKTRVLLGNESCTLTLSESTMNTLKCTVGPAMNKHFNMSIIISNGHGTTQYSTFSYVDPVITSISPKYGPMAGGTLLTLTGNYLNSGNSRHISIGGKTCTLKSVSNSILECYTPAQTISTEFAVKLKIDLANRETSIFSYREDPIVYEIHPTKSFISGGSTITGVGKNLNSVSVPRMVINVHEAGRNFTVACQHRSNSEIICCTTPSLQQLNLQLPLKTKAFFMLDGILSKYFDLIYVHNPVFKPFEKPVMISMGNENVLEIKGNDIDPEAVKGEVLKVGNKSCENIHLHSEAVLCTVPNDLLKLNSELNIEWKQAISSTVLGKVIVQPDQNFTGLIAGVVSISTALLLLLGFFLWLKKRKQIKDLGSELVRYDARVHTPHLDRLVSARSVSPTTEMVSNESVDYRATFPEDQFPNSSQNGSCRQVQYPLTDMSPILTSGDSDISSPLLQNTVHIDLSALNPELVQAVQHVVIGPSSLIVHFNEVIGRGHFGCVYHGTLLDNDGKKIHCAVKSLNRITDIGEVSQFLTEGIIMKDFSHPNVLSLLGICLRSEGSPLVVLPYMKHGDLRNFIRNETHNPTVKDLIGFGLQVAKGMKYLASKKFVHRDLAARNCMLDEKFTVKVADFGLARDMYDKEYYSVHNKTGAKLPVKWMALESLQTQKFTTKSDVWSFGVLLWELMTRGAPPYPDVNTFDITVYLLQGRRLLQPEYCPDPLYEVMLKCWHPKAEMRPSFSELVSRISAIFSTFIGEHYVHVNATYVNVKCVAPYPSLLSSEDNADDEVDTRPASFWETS
compound,measurement,setting,value
CCOc1ccn(-c2ccc(F)cc2)c(=O)c1C(=O)Nc1ccc(Oc2ccnc(N)c2Cl)c(F)c1 [BMS-777607],GI50,HT-29 [1],> 10000 nM
same,GI50,KM12C [2],133 nM
same,GI50,SW-620 [3],860 nM
same,GI50,LS-411N,> 10000 nM
same,GI50,[4],> 10000 nM
same,GI50,SW1417,> 10000 nM
same,GI50,PANC-1,> 10000 nM
same,GI50,CAPAN-1,9020 nM
same,GI50,PANC-03-27,> 10000 nM
same,GI50,SW480,> 10000 nM
same,GI50,[5],> 10000 nM
same,GI50,HCT-15,5000 nM
same,GI50,MIA PaCa-2,> 10000 nM
same,GI50,ASPC1,> 10000 nM
same,inhibition in vivo at 30 mg/kg,SW-620 [6],41.6%
same,inhibition in vivo at 30 mg/kg,T84,46.9%
same,inhibition in vivo at 10 mg/kg,[7],1.5%
C[C@@H](Oc1cc(-c2cnn(C3CCNCC3)c2)cnc1N)c1c(Cl)ccc(F)c1Cl [CRIZOTINIB],GI50,HT-29 [1],4000 nM
same,GI50,PANC-1,2560 nM
same,GI50,CAPAN-1,5120 nM
same,GI50,PANC-03-27,6350 nM
same,GI50,SW480,> 10000 nM
same,GI50,MIA PaCa-2,1460 nM
same,GI50,ASPC1,2380 nM
same,inhibition in vivo at 10 mg/kg,[7],27.5%
CCOc1ccn(-c2ccc(F)cc2)c(=O)c1C(=O)Nc1ccc(Oc2ccnc3cc(-c4cn(C)cn4)sc23)c(F)c1,GI50,HT-29 [1],570 nM
same,IC50,[8],9 nM
same,IC50,[9],4 nM
same,IC50,[10],0.41 nM
same,GI50,KM12C [2],27 nM
same,GI50,SW-620 [3],810 nM
same,Tmax,[11],2.67 h
same,Cmax,[12],810 ng/mL
same,AUC(0-inf),[13]; Sprague-Dawley,4370 ng·h/mL
same,AUC(0-inf),[14]; Sprague-Dawley,6670 ng·h/mL
same,clearance,[15]; Sprague-Dawley,3.83 mL/min/kg
same,Vd,[16],0.64 L/kg
same,half-life,[17],3.03 h
same,half-life,[18],3.79 h
same,bioavailability,[19]; Sprague-Dawley,30.5%
same,remaining at 0.5 h,[20],49%
COc1ccc2c(Oc3ccc(NC(=O)c4c(C)n(CC(C)(C)O)n(-c5ccccc5)c4=O)cc3F)ccnc2c1,IC50,[9],9 nM
Cc1ccc(C(=O)Nc2ccc(Oc3cc4cnn(C)c4cc3-c3cn[nH]c3)c(F)c2)c(=O)n1-c1ccc(F)cc1 [MERESTINIB],IC50,[8],12 nM
CCOc1ccn(-c2ccc(F)cc2)c(=O)c1C(=O)Nc1ccc(Oc2ccnc3cc(-c4ccc(CN5CCOCC5)cn4)sc23)c(F)c1,GI50,KM12C [2],7 nM
same,GI50,SW-620 [3],320 nM
same,Activity,KM12C [21],41.9%
same,Activity,HT-29 [22],51.3%
same,inhibition,NIH3T3 [23],Active
same,inhibition,NIH3T3 [24],Active
same,inhibition,NIH3T3 [25],Active
same,GI50,LS-411N,1010 nM
same,GI50,[4],550 nM
same,GI50,SW1417,320 nM
same,GI50,PANC-1,2400 nM
same,GI50,CAPAN-1,550 nM
same,GI50,PANC-03-27,7340 nM
same,GI50,SW480,340 nM
same,GI50,[5],450 nM
same,GI50,HCT-15,290 nM
same,GI50,MIA PaCa-2,630 nM
same,GI50,ASPC1,460 nM
same,Tmax,[11],1 h
same,Cmax,[12],2020 ng/mL
same,AUC,[13]; 24 h,7240 ng·h/mL
same,AUC,[14]; 24 h,12600 ng·h/mL
same,CL,"[15]; iv, 1 mg/kg, 24 h",11.5 mL/min/kg
same,Vd,[16],2.25 L/kg
same,half-life,[17],3.28 h
same,half-life,[18],3.1 h
same,F,"[19]; po, 5 mg/kg, 24 h",87.01%
same,remaining at 0.5 h,[20],69%
same,inhibition in vivo at 1 mg/kg,KM12C [26],29.4%
same,inhibition in vivo at 3 mg/kg,KM12C [27],35%
same,inhibition in vivo at 10 mg/kg,KM12C [28],73%
same,inhibition in vivo at 30 mg/kg,KM12C [29],85.2%
same,inhibition in vivo at 30 mg/kg,SW-620 [6],79.8%
same,inhibition in vivo at 30 mg/kg,T84,88.3%
same,inhibition in vivo at 10 mg/kg,[7],74.9%
CC(C)COc1ccn(-c2ccc(F)cc2)c(=O)c1C(=O)Nc1ccc(Oc2ccnc3cc(-c4ccc(CN5CCOCC5)cn4)sc23)c(F)c1,GI50,HT-29 [1],160 nM
same,IC50,[10],0.62 nM
same,GI50,KM12C [2],3 nM
same,GI50,SW-620 [3],380 nM
same,Activity,KM12C [21],Active
same,Activity,HT-29 [22],Active

# Reference: ChEMBL document CHEMBL5365510, “Discovery of Novel, Thienopyridine-Based Tyrosine Kinase Inhibitors Targeting Tumorigenic RON Splice Variants” (ACS Med Chem Lett, 2023)
